Data on four molecules can be found in patent US20260357306A1, “ONE-POT FERMENTATIVE PRODUCTION OF GLYCOLATE OR OTHER HYDROXYCARBOXYLIC ACIDS” (PHYCUS BIOTECHNOLOGIES INC., priority 2023, published 2026).

Data set [1] addresses T1, Azotobacter vinelandii aldehyde dehydrogenase aviALDH, SEQ ID NO: 266 (Azotobacter vinelandii, UniProt C1DMY3).
T1 sequence (C1DMY3 1-477): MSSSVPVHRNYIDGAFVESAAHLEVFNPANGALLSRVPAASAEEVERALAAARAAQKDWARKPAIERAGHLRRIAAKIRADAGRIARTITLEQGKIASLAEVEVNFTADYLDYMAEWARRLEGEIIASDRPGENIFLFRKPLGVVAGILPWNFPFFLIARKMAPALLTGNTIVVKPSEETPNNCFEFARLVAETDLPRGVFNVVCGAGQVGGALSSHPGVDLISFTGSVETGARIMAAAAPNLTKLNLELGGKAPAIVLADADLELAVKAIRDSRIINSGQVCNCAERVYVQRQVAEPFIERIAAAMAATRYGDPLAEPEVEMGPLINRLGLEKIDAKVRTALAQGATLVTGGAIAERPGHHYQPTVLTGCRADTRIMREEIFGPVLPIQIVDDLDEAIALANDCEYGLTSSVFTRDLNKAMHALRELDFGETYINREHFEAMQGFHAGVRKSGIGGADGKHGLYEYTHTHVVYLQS
Description: Aldehyde dehydrogenase (glycolaldehyde to glycolic acid) kinetics, aviALDH. Format: biochemical. The text has this: (§1) Enzyme expression and purification: The enzymes of interest were genetically engineered in the E. coli BL21 (DE3) strain on a high copy plasmid under control of the T7 promoter. The enzymes were tagged with a hexahistidine (His-tag) sequence to facilitate for purification. Post-expression, the His-tagged enzymes were selectively bound to a nickel-charged immobilized metal affinity chromatography (IMAC) resin, exploiting the high affinity between histidine residues and nickel ions. Upon washing away non-specifically bound proteins, the His-tagged enzymes were eluted with an imidazole-containing buffer and subsequently used for enzymatic assays.
Enzyme assays: Standard enzyme characterization protocols were performed to determine the activities of the enzymes. Dehydrogenase activity against the substrates was determined using a continuous assay following the increase in absorbance at 340 nm ε340 (NADH)=6.22 mM^−1. cm^−1, and ε340 (NADPH)=6.2 mM^−1·cm^−1]. Substrate screens were performed at 30 °C in a reaction mixture (200 μL) containing 50 mM of substrate in 100 mM Tris-HCl (pH 8.5), 1 mM NAD^+, 1 mM substrate, and 10 μg of purified protein. Initial velocity patterns of the enzymatic reaction were obtained by varying the concentrations of ethylene glycol at fixed concentrations of enzyme concentration in the presence of the saturating NAD concentrations.
(§2) A second enzymatic step in the processes described herein relate to the conversion of an aliphatic polyhydric aldehyde substrate (e.g., glycolaldehyde) to a corresponding alpha-hydroxy acid (e.g., glycolic acid). E. coli aldehyde dehydrogenase aldA (ecoALDH) has been reported to catalyze the intracellular enzymatic conversion of glycolaldehyde (GA) to glycolic acid (e.g., Wada et al. 2005; Morishige et al., 2007; Pandit et al., 2019; Pandit et al., 2021). In order to identify potentially higher-performing enzymes for industrial use capable of converting glycolaldehyde to glycolic acid, we evaluated a plurality of candidates based on either close, medium, or distant phylogeny to ecoALDH (SEQ ID NO: 265). A subset of candidate enzymes were cloned, expressed, and purified, along with ecoALDH as a control, as described in Example 8.1, and their in vitro enzymatic activities were measured in a reaction mixture consisting of 50 mM glycolaldehyde in 100 mM Tris-HCl buffer (pH 8.5). The reaction was initiated by the addition of the purified enzyme, and activity was measured by monitoring the formation of glycolic acid over time. […]

Data set [2] deals with Gluconobacter oxydans zinc-dependent medium-chain alcohol dehydrogenase Gox0313, SEQ ID NO: 206. Particulars: role: substrate, Zhang et al., 2015, cited from earlier work.
Data set [3] deals with T2, Escherichia coli aldehyde dehydrogenase ecoALDH (aldA), SEQ ID NO: 265 (Escherichia coli, UniProt P25553).
T2 construct: made in house; host or cells: E. coli BL21 (DE3)
T2 sequence (P25553 1-479): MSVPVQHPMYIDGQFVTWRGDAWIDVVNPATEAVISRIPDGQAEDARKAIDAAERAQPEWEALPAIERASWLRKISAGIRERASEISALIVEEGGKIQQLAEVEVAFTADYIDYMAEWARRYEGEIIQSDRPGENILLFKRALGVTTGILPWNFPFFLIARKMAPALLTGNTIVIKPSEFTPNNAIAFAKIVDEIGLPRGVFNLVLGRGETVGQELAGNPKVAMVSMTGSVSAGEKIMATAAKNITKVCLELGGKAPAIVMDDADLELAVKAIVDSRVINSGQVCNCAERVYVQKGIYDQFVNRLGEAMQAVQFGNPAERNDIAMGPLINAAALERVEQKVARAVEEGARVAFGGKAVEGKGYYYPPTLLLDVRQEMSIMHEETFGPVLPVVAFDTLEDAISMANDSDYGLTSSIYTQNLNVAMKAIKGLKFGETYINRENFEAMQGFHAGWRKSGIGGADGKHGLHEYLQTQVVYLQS
Description: Aldehyde dehydrogenase (glycolaldehyde to glycolic acid) kinetics, ecoALDH. Format: biochemical.
Text: as §1
(§3) Enzyme assays: Standard enzyme characterization protocols were performed to determine the activities of the enzymes. Dehydrogenase activity against the substrates was determined using a continuous assay following the increase in absorbance at 340 nm ε340 (NADH)=6.22 mM^−1. cm^−1, and ε340 (NADPH)=6.2 mM^−1·cm^−1]. […]
A second enzymatic step in the processes described herein relate to the conversion of an aliphatic polyhydric aldehyde substrate (e.g., glycolaldehyde) to a corresponding alpha-hydroxy acid (e.g., glycolic acid). […] The reaction was initiated by the addition of the purified enzyme, and activity was measured by monitoring the formation of glycolic acid over time. […]

Data set [4] has as its target T3, Pseudomonas putida aldehyde dehydrogenase ppuALDH, SEQ ID NO: 267 (Pseudomonas putida, UniProt Q88K06).
T3 sequence (Q88K06 1-503): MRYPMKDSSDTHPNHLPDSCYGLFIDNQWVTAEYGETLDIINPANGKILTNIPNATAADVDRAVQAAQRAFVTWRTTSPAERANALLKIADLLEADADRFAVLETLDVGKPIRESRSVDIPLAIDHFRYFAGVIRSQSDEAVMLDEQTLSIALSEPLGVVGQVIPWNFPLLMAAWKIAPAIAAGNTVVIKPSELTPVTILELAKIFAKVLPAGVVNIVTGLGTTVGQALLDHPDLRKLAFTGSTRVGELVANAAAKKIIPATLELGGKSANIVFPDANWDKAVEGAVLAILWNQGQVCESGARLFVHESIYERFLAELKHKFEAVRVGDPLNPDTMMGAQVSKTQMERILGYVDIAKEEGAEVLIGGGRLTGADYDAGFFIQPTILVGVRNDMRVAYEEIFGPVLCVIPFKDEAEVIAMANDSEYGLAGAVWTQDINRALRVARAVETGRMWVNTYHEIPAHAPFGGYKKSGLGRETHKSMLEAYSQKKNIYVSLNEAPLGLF
In words: Aldehyde dehydrogenase (glycolaldehyde to glycolic acid) kinetics, ppuALDH. Format: biochemical.
Text: as §1
Enzyme assays: Standard enzyme characterization protocols were performed to determine the activities of the enzymes. Dehydrogenase activity against the substrates was determined using a continuous assay following the increase in absorbance at 340 nm ε340 (NADH)=6.22 mM^−1. cm^−1, and ε340 (NADPH)=6.2 mM^−1·cm^−1]. Substrate screens were performed at 30 °C in a reaction mixture (200 μL) containing 50 mM of substrate in 100 mM Tris-HCl (pH 8.5), 1 mM NAD^+, 1 mM substrate, and 10 μg of purified protein. […]
as §2, with “E. coli aldehyde dehydrogenase aldA (ecoALDH) has been reported to catalyze the intracellular enzymatic conversion of glycolaldehyde (GA) to glycolic acid (e.g., Wada et al. 2005; Morishige et al., 2007; Pandit et al., 2019; Pandit et al., 2021).” left out

Substrate in data set [5]: OCCO
In words: Alcohol dehydrogenase (EG oxidation) Michaelis-Menten kinetics, gdiADH. The data set is classed as biochemical, Gluconobacter diazotrophicus. Particulars: other: role: substrate, 100 mM Tris-HCl pH 8.5, 30 °C, saturating NAD, EG 1-100 mM.
Text: as §1, §3
(§4) The candidate alcohol dehydrogenase enzymes were next characterized for their enzymatic activity. […] Reactions were initiated by the addition of the purified enzyme and enzymatic activity was measured by monitoring the formation of the product (glycolaldehyde) over time as described in Example 8.1. […]

Substrate in data set [6]: OCCO
Description: Alcohol dehydrogenase (EG oxidation) Michaelis-Menten kinetics, gmoADH. As to conditions: other: role: substrate, 100 mM Tris-HCl pH 8.5, 30 °C, saturating NAD, EG 1-100 mM. Format: biochemical, Gluconobacter morbifer.
Text: as §1, §3, §4

Substrate in data set [7]: OCCO
In words: Alcohol dehydrogenase (EG oxidation) Michaelis-Menten kinetics, goxADH. The data set is classed as biochemical, Gluconobacter oxydans. Particulars: other: role: substrate, 100 mM Tris-HCl pH 8.5, 30 °C, saturating NAD, EG 1-100 mM.
Text: as §1, §3, §4

Where [8] appears, read: role: inhibitor, substrate inhibition, relative to ecoALDH.
The mark [9] stands for this setting: role: substrate, relative to ecoALDH.
Where [10] appears, read: role: substrate, versus ecoALDH.

For the molecule `O=CCO` [glycolaldehyde], in data set [1] (role: inhibitor, glycolaldehyde substrate inhibition, versus ecoALDH), the “resistance to substrate inhibition, fold higher than ecoALDH” value stood at 5.6 fold. The “Relative KI” value came out at 5.6 in data set [1] (setting [8]); 1.0 in data set [3] (role: inhibitor, substrate inhibition); 1.3 in data set [4] (setting [8]). The Relative kcat stood at 5.3 in data set [1] (setting [9]), 1.0 in data set [3] (role: substrate) and 5.8 in data set [4] (setting [9]). Further, the “catalytic turnover rate, fold higher than ecoALDH” value in data set [1] (setting [10]) came out at 5.3 fold; in data set [4] (setting [10]), 5.8 fold. In data set [2] (compared to ethylene glycol), the “turnover and catalytic efficiency for glycolaldehyde as a substrate” value is “higher turnover and catalytic efficiency”. In addition, the “affinity and catalytic rate for glycolaldehyde reduction to ethylene glycol” value in data set [2] (compared to the oxidation of ethylene glycol) was “higher affinity and catalytic rate”.

B1: Gluconobacter diazotrophicus alcohol dehydrogenase gdiADH, SEQ ID NO: 208 (Gluconacetobacter diazotrophicus PA1 5) (protein)
chain: MRSADTILGGTSMTGKMKAAVVREFGKPLTIEELDIPSIRPDQILVKMDACGVCHTDLHAARGDWPVKPNPPFIPGHEGVGHVVSVGSAVKWVKLGDVVGVPWLYSACGHCEHCLGGWETLCASQDDTGYTVNGCFAEYVVADPSYVAHLPKTIDPLQVAPVLCAGLTVYKGLKMTDTKPGDWVAVSGVGGLGQMAVQYGVAMGMNVIAVDIDDEKLATAKALGAALTVNARATDPAPFIQSQVGGAHGALVTAVSRSAFSQAMGFARRGGTIVLNGLPPGEFPISIFDMVMAGTTVRGSIVGTRLDMIEAVSFFADGKVKTVIEPDRLENINQIFTDLEEGKIQGRKVLDFRQ
With B1, in data set [5], the Km is recorded as 230 ± 87 μM EG and the Vmax came out at 7.5 ± 2.1 µmol/min/mg.

B2: Gluconobacter morbifer alcohol dehydrogenase gmoADH, SEQ ID NO: 207 (Gluconobacter morbifer G707) (protein)
chain: MADTMQAAVVREFGKPLSIERVPVPEIRPNQILVKVETCGVCHTDLHAARGDWPTKPNPPFIPGHEGVGRIVALGSQVGDFVKVGDRVGVPWLYSACGHCEHCLGGWETLCEKQEDTGYSVNGCFAEYVAADPNYVAHLPENIDPLETSPVLCAGLTVYKGLKMTEARPGQWVAVSGIGGLGQMAVQYAVAMGMNVVAVDIDDGKLETAKKLGAVLTVNAKDRDPAKFVQQEIGGAHGALVTAVGRTAFAQAMGYARRGGTIVLNGLPPGDFPISIFDMVMNGTTVRGSIVGTRLDMIEALDFFARGKVKSVVTADKLENINTIFDNLQNGRLAGRTVLDFRS
Consider B2, for which, in data set [6], the Km is 200 ± 44 μM EG and the Vmax worked out at 4.9 ± 0.8 µmol/min/mg.

B3: Gluconobacter oxydans alcohol dehydrogenase goxADH (Gox0313), SEQ ID NO: 206 (Gluconobacter oxydans 621H) (protein)
chain: MADTMLAAVVREFGKPLSIERLPIPDIKPHQILVKVDTCGVCHTDLHAARGDWPSKPNPPFIPGHEGVGHIVAVGSQVGDFVKTGDVVGVPWLYSACGHCEHCLGGWETLCEKQDDTGYTVNGCFAEYVVADPNYVAHLPSTIDPLQASPVLCAGLTVYKGLKMTEARPGQWVAVSGVGGLGQMAVQYAVAMGMNVVAVDIDDEKLATAKKLGASLTVNAKDTDPARFIQQQIGGAHGALVTAVGRTAFSQAMGYARRGGTIVLNGLPPGDFPVSIFDMVMNGTTIRGSIVGTRLDMIEAMDFFARGKVKSVVTPGKLENINTIFDDLQNGRLEGRTVLDFRS
Turning to B3, the maximal velocity (Vmax) in data set [7] came out at 2.0 ± 0.1 µmol/min/mg.

As usually defined, the Vmax is the top rate of the reaction or transport when substrate is in excess.
